Measurements: patent US20250099420A1, “SMALL MOLECULE MODULATORS OF GPR139 COMPLEX” (University of Florida Research Foundation, Incorporated, priority 2022, published 2025)
Where two headings read alike, the source gives them in different places.

What was measured:
parental HEK cells = test: HEK parental Antagonist Counterscreen Assay (non-transfected cells, acetylcholine control); format: cell-based; settings: for EC50: Homo sapiens, HEK293, acetylcholine as control, scientific notation, molarity
GPR139 [1] = biological target: T1, GPR139 (Homo sapiens, UniProt Q6DWJ6)
T1 sequence (Q6DWJ6 1-353): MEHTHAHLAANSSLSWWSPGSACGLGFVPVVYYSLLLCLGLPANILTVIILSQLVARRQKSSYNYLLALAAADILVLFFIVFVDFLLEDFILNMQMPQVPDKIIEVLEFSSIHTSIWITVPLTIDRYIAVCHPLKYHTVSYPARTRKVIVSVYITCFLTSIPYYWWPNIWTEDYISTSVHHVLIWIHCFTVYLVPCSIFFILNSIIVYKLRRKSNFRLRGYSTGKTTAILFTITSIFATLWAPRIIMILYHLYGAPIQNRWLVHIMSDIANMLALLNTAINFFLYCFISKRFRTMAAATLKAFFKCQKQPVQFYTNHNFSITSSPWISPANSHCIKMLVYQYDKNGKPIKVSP
Description: (§1) GPR activity was assessed using a calcium detection assay. GPR139 agonists stimulate an increase in intracellular calcium in HEK-GPR139 cells. Agonists increase the release of intracellular calcium, while antagonists decrease the release of intracellular calcium, as compared to an EC80 stimulation of the know agonist S-JNJ-63533054. The positive control for the agonist mode was cells treated with EC100 of known agonist S-JNJ-63533054. Negative control samples were treated with DMSO. The antagonist high control in cells was EC80 of S-JNJ-63533054+IC100 S-JNJ-3792165, while cells were treated with EC80 of S-JNJ-63533054+DMSO for the low control. Intracellular calcium was measured using Calcium 5.
(§2) HEK cells were transfected the DNA encoding GPR139 and incubated for 24 hours. 3000 cells/well in 3 μL HEPES and 1% DMSO were seeded into 1536-well plates. 3 μL Calcium 5 was then added to each well and cells were incubated for 60 min. at 37° C. in 5% CO2 and 95% relative humidity. Cells were pretreated with 50 nL DMSO (5 min. at room temperature in the dark) to stabilize response and desensitize cells to DMSO. A 5 second basal read was recorded and compounds in 30 nL were added to the cells, followed by a 150 second read.
(§3) B. Antagonist Mode: The “High Control” represented wells containing cells with GPR139+Antagonist IC100+Agonist EC80. “Low Control” represented wells containing cells with GPR139 with EC100 Agonist. “0% control” and sample field represented wells containing cells with GPR139 with EC80 Agonist with DMSO or compounds. The Z′ and S:B for this assay were calculated using the High Control and Low Control wells.
(§4) The HEK parental counterscreen utilized the same cells but not transfected with the plasmid. Acetylcholine was used in place of GPR139 agonist as the control compound. The cells were plated overnight, similar to the HEK antagonist counterscreen protocol.
(§5) The GPR139 Agonist and Antagonist titration assays employed the same reagents, protocols, and detection systems as the primary assays, but tested each as 10 point dose response starting at 676 nM concentration in triplicate with 1:3 dilutions. The HEK parental counterscreens utilized the same cells but not transfected with the plasmid. Acetylcholine was used in place of GPR139 agonist as the control compound. The cells were plated overnight, similar to the HEK antagonist counterscreen protocol.
(§6) For each test compound, percent activation was plotted against compound concentration. A four parameter equation describing a sigmoidal dose-response curve was then fitted with adjustable baseline using Assay Explorer software (Symyx Technologies Inc.).

GPR139 [2] = biological target: T1, GPR139; test: GPR139 Agonist titration / agonist counterscreen assay (calcium detection, HEK-GPR139 cells); format: cell-based; design: expressed in transfected cells; host or cells: HEK Aequorin cells, Maxcyte transient transfection; settings: agonist counterscreen of the antagonists; for EC50: scientific notation, molarity, read-out: GRP139 Agonist activity EC50
Description: GPR activity was assessed using a calcium detection assay. […] Negative control samples were treated with DMSO. […] Intracellular calcium was measured using Calcium 5.

GPR139 [3] = biological target: T1, GPR139; test: GPR139 Antagonist titration assay (calcium detection, HEK-GPR139 cells, vs EC80 of S-JNJ-63533054); settings: for GPR139 Antagonist Activity Averaged Max % Response (±St. Dev.): activity relative to known control; for GPR139 Antagonist Activity Hill Slope: fitted dose-response curve; for GPR139 Antagonist Activity Lipophilic Efficiency (logD): based on logD; for GPR139 Antagonist Activity Lipophilic Efficiency (logP): based on logP
Description: as §1, §2, §3, §4, §5, §6

GPR139 [4] = biological target: T1, GPR139; test: [3H]JNJ-63533054 radioligand competition binding assay on membranes of HEK293T/17 cells; design: HA signal peptide (HASP) (N); expressed in transfected cells; host or cells: HEK293T/17 cells (membrane preparation); settings: for inhibition at 10 µM: 10 μM of the indicated compound, (10 μM) JNJ-63533054 as printed in title; for Ki: Ki=IC50/(1+C/Kd), membranes of HEK293T/17 cells expressing human GPR139, read-out: Ki ± SEM
Source text: Eighteen compounds were selected for additional study. The compounds were re-synthesized and tested in radioligand binding competition assays for their ability to displace [^3H]-labeled reference agonist JNJ-63533054 on GPR139. The GPR139 construct used (pCDNA3.1-HASP-HA-GPR139) contained an N-terminal HA signal peptide (HASP), followed by an HA tag and human GPR139 (NM_001002911.4). HEK293T/17 cells were maintained in Dulbecco's modified Eagle's medium with 10% (v/v) fetal bovine serum, nonessential amino acids, and 1 mM sodium pyruvate.
Competition binding assay: Radioligand binding assay used human GPR139 expressed in HEK293T/17 cells. HEK293T/17 cells were transfected pCDNA3.1-HASP-HA-GPR139. 48 h after, cells were detached from plates by pipetting with PBS, centrifuged at 500×g for 5 min, and then the fluid was aspirated away. The cell pellets were frozen with liquid nitrogen and stored at −80° C. Pellets were homogenized in TE buffer (50 mM Tris-HCl, pH 7.4, 5 mM EDTA) and centrifuged at 1000×g at 4° C. for 5 min. Supernatant was collected and recentrifuged at 30,000×g at 4° C. for 30 min. The pellet was rehomogenized in TE buffer and incubated for 60 minutes at room temperature with eight concentrations of [^3H]JNJ-63533054 (specific activity 24.7 Ci/mmol) ranging from 0.024 nM to 400 nM. The binding reaction was terminated by filtration through GF/C filter (Waterman) followed by washes with cold TE buffer. Filters were dried in a hood overnight followed by the addition of scintillation fluid. Bound radioactivity was counted on a Hidex 600 liquid scintillation counter. […] Nonspecific binding was determined with 10 μM JNJ-63533054. The Kd values of the radioligands and IC50 of the antagonist were calculated by Graphpad Prism. Ki values were calculated as Ki=IC50/(1+C/Kd), where C is concentration of the radioligand.
Various concentrations of selected ligands were then added in the presence of 10 nM [^3H]-JNJ-63533054 and their ability to displace [^3H]labeling on cellular membranes was assessed. FIGS. 3B and 3C present representative data obtained in these experiments. […] The results of these experiments are presented in the Table 3 and confirm selective binding the compounds to GPR139 thereby validating their interaction with the intended target.

Row | SMILES | HEK antagonist activity Averaged Max % Response (±St. Dev.) (parental HEK cells) | GPR139 Antagonist Activity Lipophilic Efficiency (logD) (GPR139 [1]) | GPR139 Antagonist Activity Lipophilic Efficiency (logP) (GPR139 [1]) | GRP139 Agonist activity Averaged Max % Response (±St. Dev.) (GPR139 [2]) | EC50 (GPR139 [2]) | GPR139 Antagonist Activity Ligand Efficiency (GPR139 [3]) | GPR139 Antagonist Activity Averaged Max % Response (±St. Dev.) (GPR139 [3]) | GPR139 Antagonist Activity Hill Slope (GPR139 [3]) | EC50 (parental HEK cells) | EC50 (GPR139 [3]) | GPR139 Antagonist Activity Lipophilic Efficiency (logD) (GPR139 [3]) | GPR139 Antagonist Activity Lipophilic Efficiency (logP) (GPR139 [3]) | inhibition at 10 µM (GPR139 [4]) | Ki (GPR139 [4])
1 | CC(C)C(=O)N1CCN(c2nc(-c3ccccc3)c3c(c2C#N)CCCC3)CC1 [SR-01000000597] | 14.40 ± 10.68% | −52.3E−3 | −52.4E−3 | 3.20 ± 6.96% | > 11.2 µM | 0.24 | 54.78 ± 3.56% | 1.21 |  |  |  |  |  | 
2 | Cc1cc(C(=O)N/N=C/c2cn(Cc3ccccc3)c3ccccc23)n[nH]1 [SR-01000110742] | 24.28 ± 7.95% | 1.95 | 1.94 | 8.07 ± 1.27% | > 14.1 µM | 0.28 | 90.37 ± 1.31% | 0.68 |  |  |  |  |  | 
3 | O=C(Nc1ccccc1C(=O)O)c1ccc(Oc2ccc([N+](=O)[O-])cc2)cc1 [SR-01000201144] | 81.74 ± 3.36% | 4.02 | 0.66 | 19.36 ± 5.93% | > 14.1 µM | 0.27 | 67.66 ± 7.67% | 2.60 |  |  |  |  |  | 
4 | O=C(CS(=O)(=O)c1ccccc1)Nc1ccc(Oc2ccccc2)cc1 [SR-01000263867] | 20.24 ± 7.73% |  |  | 4.67 ± 4.93% | > 14.1 µM | 0.31 | 84.30 ± 2.68% | 0.99 | > 14.1 µM | 2.1 µM | 1.99 | 1.99 | 59.3 ± 7.51% | 4.91 ± 1.1 µM
5 | CCOC(=O)c1c(C)nc2c(c1-c1ccc(F)cc1)C(=O)CC(c1ccc(Cl)cc1)C2 (centres unmarked) [SR-01000419112] | 18.74 ± 4.66% |  |  | 0.45 ± 5.31% | > 11.7 µM | 0.23 | 67.9 ± 10.41% | 1.28 | > 11.7 µM | 7.8 µM | 0.44 | 0.44 | 102 ± 4.88% | 0.98 ± 0.02 µM
6 | CCOC(=O)C(CC)Oc1ccc2c(C)c(Cc3ccccc3)c(=O)oc2c1 (centres unmarked) [SR-01000421299] | 7.76 ± 14.27% |  |  | 10.58 ± 2.83% | > 9.8 µM | 0.26 | 74.1 ± 13.55% | 1.98 | > 9.8 µM | 7.2 µM | 0.17 | 0.17 | 65 ± 3.44% | 1.81 ± 0.04 µM
7 | CC(=O)N1N=C(c2ccc(C)cc2)CC1c1ccccc1Cl (centres unmarked) [SR-01000462122] | 17.80 ± 3.32% |  |  | −2.6E+0 ± 5.95 ^ % | > 16.2 µM | 0.32 | 79.69 ± 2.61% | 1.19 | > 16.2 µM | 8.7 µM | 1.04 | 1.04 | 22 ± 2.59% | 13.3 ± 0.3 µM
8 | COc1ccccc1CNC(=O)N1c2ccccc2Sc2ccccc21 [SR-01000506165] | 5.72 ± 9.39% |  |  | 7.66 ± 5.35% | > 14.6 µM | 0.30 | 86.87 ± 2.82% | 0.52 | > 14.6 µM | 2.8 µM | 1.14 | 1.14 | 103 ± 1.95% | 1.1 ± 0.02 µM
9 | Nc1cccc(C(=O)Nc2cc(O)n(-c3c(Cl)cc(Cl)cc3Cl)n2)c1 [SR-01000514922] | 16.24 ± 5.67% |  |  | 1.17 ± 6.37% | > 14.7 µM | 0.28 | 80.63 ± 3.57% | 0.70 | > 14.7 µM | 8.6 µM | 1.63 | 0.55 | 21.8 ± 14.1% | 0.92 ± 0.02 µM
10 | O=C(CSc1nc(-c2ccccc2)cn1-c1ccccc1)Nc1ccc(F)cc1 [SR-01000555394] | 31.37 ± 1.24% | −672.3E−3 | −672.4E−3 | −854E−3 ± 6.10 ^ % | > 14.5 µM | 0.25 | 71.06 ± 5.55% | 0.45 |  |  |  |  |  | 
11 | CC1CCCC(NC(=O)c2cccc(NS(=O)(=O)c3ccc(Br)cc3)c2)C1C (centres unmarked) [SR-01000594343] | 10.38 ± 17.91% |  |  | 16.98 ± 6.81% | > 14.1 µM | 0.26 | 64.21 ± 3.85% | −1.40 | > 14.1 µM | 7.7 µM | 0.51 | 0.36 | 87.2 ± 2.37% | 3.05 ± 0.07 µM
12 | COc1ccc(-c2cccc(NS(=O)(=O)c3ccc(I)cc3)c2)nn1 [SR-01000914310] | 26.24 ± 12.88% |  |  | 7.64 ± 5.47% | > 14.1 µM | 0.29 | 72.33 ± 6.63% | 1.00 | > 14.1 µM | 6 µM | 1.70 | 1.56 | 72.2 ± 2.78% | 1.06 ± 0.02 µM
